# Measurements: US8530504B2, “Pyrazolothiazole compound” (Eisai R&D Management Co., Ltd., priority 2009, dated 2013)
# How the values were obtained:
# [1] = Journal of Psychiatric Research, 34:171-181 (2000); cited from earlier work
# [2] = tested on: rats; settings: cited from earlier work
# [3] = tested on: high-anxiety rats; settings: particularly in high-anxiety rats; cited from earlier work
# [4] = target: human CRFR1 (Homo sapiens (Human), UniProt P34998); assay: CRFR1 Binding Test; settings: competition with 100 pM 125I-CRF, SPA method, membrane fraction of human CRFR1-expressing HEK293 cells; read-out: CRF1 receptor binding capacity IC50;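 also: nonspecific binding was determined with a 4,000-fold excess of unlabelled sauvagine and subtracted from every reading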
# [5] = tested on: mice; assay: Light/dark box test in mice (anxiolytic effect); type: in vivo; settings: for Effective Dose: dose significantly prolonging time spent in the light box vs vehicle, oral administration one hour prior to test, male Balb/c mice; for anxiolytic effect in the light/dark box test in mice: statistically significant at 30 mg/kg (oral administration)
# Description: <Evaluation of Anxiolytic Effect in Light/Dark Box Test in Mice>
# The light/dark box test in mice was carried out according to a modified method of Belzung C., Misslin R., and Vogel E. et al. (Reference; Behavioural effects of the benzodiazepine receptor partial agonist RO16-6028 in mice, Psychopharmacology, 97, 388-391, 1989). The test apparatus used in this test was a light/dark box including a covered black acrylic box (dark box; 15×10×20 cm), a white acrylic box with top opened (light box; 15×20×20 cm) and a black acrylic tunnel (10×7×4.5 cm) that connects the dark box and the light box and enables a mouse to freely move back and forth between the dark box and light box. In this test apparatus, however, a transparent acrylic plate was used for the front side (20×20 cm) and back side (20×20 cm) of the light box to allow observation of the behavior. After setting illumination so that the light intensity of the floor surface of the light box became 150 Lux, 5-week-old male Balb/c mice (purchased from Nihon Charles River) were introduced into the dark box and the test was started. In the test, the tested compound was suspended in 5% dimethyl sulfoxide, 5% Cremopor EL and 90% physiological saline and orally administered to the test animals one hour prior to the start of the test.
# The time spent in the light box was measured as an index of the anxiolytic effect, with “spend in the light box” defined as the state in which all limbs of the mice were on the floor of the light box. […] The statistical significance between the vehicle-treated group and the test compound-treated groups was analyzed by one-way layout analysis of variance followed by Dunnett multiple comparison when multiple doses were set for the same test, and by the Mann-Whitney U test when only one dose was set.
# [6] = in vivo; cited from earlier work
# [7] = in vivo; cited from earlier work; remark: listed apart in the source
# [8] = pretreatment; cited from earlier work
# [9] = tested on: rats; settings: cited from earlier work; remark: listed apart in the source
# [10] = in vivo; cited from earlier work; remark: listed apart in the source
# [11] = tested on: rats; settings: cited from earlier work; remark: listed apart in the source
# [12] = tested on: rats; settings: cited from earlier work; remark: listed apart in the source
# [13] = in vivo; cited from earlier work; remark: listed apart in the source
# [14] = in vivo; cited from earlier work; remark: listed apart in the source
# [15] = tested on: ethanol withdrawal rats; settings: cited from earlier work
# [16] = in vivo; cited from earlier work; remark: listed apart in the source
# [17] = tested on: IBS patients; settings: cited from earlier work
# [18] = in vivo; cited from earlier work; remark: listed apart in the source
# [19] = convulsion and epilepsy induced by CRF administration; cited from earlier work
# [20] = tested on: Tg2576 transgenic mice; settings: cited from earlier work
# human CRFR1, sequence (P34998 24-415): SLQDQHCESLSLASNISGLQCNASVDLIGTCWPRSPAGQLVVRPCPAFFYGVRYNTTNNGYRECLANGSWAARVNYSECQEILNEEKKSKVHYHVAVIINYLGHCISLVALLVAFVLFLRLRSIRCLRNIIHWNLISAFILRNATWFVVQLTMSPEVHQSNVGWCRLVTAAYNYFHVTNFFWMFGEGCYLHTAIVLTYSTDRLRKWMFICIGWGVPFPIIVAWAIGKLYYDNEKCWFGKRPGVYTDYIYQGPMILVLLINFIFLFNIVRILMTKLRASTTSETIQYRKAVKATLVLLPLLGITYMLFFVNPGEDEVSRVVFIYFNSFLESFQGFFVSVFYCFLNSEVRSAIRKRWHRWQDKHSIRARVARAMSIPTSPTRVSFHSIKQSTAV
molecule,measurement,setting,value
CCCN(CCC)c1cc(C)nc2c(-c3cnc(N(C)C)cc3C)c(C)nn12 [Example R121919],"ameliorating depression, depressive symptoms, anxiety",[1],"effective for ameliorating depression, depressive symptoms, anxiety"
same,anti-anxiety action,[2],exhibits an anti-anxiety action
same,stress-related sleep disorder,[3],inhibits stress-related sleep disorder
"CCCN(c1c(OC)nn2c(-c3c(OC)cc(COCC)cc3OC)csc12)C1CCOC1 (stereo not drawn) [Example 46, 3-[4-(Ethoxymethyl)-2,6-dimethoxyphenyl]-6-methoxy-N-propyl-N-(tetrahydrofuran-3-yl)pyrazolo[5,1-b][1,3]thiazole-7-amine]",IC50,[4],26 nM
same,Effective Dose,[5],30 mg/kg
same,anxiolytic effect in the light/dark box test in mice,[5],excellent anxiolytic effects
"COCc1cc(OC)c(-c2csc3c(N(CC4CC4)CC4C5COCC54)c(OC)nn23)c(OC)c1 (single isomer, unassigned; diastereomer 1) [Example 94, N-(Cyclopropylmethyl)-3-[2,6-dimethoxy-4-(methoxymethyl)phenyl]-6-methoxy-N-[3-oxabicyclo[3.1.0]hex-6-ylmethyl]-pyrazolo[5,1-b][1,3]thiazole-7-amine (diastereomer 1)]",IC50,[4],45 nM
same,Effective Dose,[5],30 mg/kg
same,anxiolytic effect in the light/dark box test in mice,[5],excellent anxiolytic effects
CCN(c1nc(C)cc(N2CC=C(c3cccc(F)c3)CC2)n1)c1ccc(C(C)C)cc1SC [CRA1000],stress-related reduction in food intake,[6],inhibit stress-related reduction in food intake
CCCCN(CC)c1nc(C)nc2c1c(C)cn2-c1c(C)cc(C)cc1C [CP-154526],gastric emptying retardation after surgery,[7],recovers gastric emptying retardation after surgery
same,naltrexone-induced morphine withdrawal symptoms,[8],inhibits naltrexone-induced morphine withdrawal symptoms
same,recurrence of stress-elicited alcohol-seeking behavior,[9],inhibits recurrence of stress-elicited alcohol-seeking behavior
same,learning disability following acute stress,[10],inhibits learning disability following acute stress
same,anti-depressant and anti-anxiety actions,[11],exhibits anti-depressant and anti-anxiety actions
same,"recurrence of stress-elicited drug (heroin, cocaine)-seeking behavior",[12],"inhibits recurrence of stress-elicited drug (heroin, cocaine)-seeking behavior"
CCCCN(CC)c1nc(C)nc2c1c(C)c(C)n2-c1c(C)cc(C)cc1C [antalarmin],hypertension induced by intraventricular administration of CRF,[13],inhibits hypertension induced by intraventricular administration of CRF
same,stress-induced hippocampal tau phosphorylation,[14],inhibits stress-induced hippocampal tau phosphorylation
α-helical CRF (9-41),anxiety behavior,[15],inhibits anxiety behavior
same,stress-related reduction in food intake,[6],inhibit stress-related reduction in food intake
same,stress-related increase in intracerebral amyloid-β,[16],suppresses stress-related increase in intracerebral amyloid-β
same,"colon intestinal hyperkinesis, abdominal pain and anxiety",[17],inhibits colon intestinal hyperkinesis in IBS patients and reduces abdominal pain and anxiety
same,ischemic and excitotoxic encephalopathy,[18],inhibits ischemic and excitotoxic encephalopathy
"CCCN(c1c(OC)nn2c(-c3c(OC)cc(COC)cc3OC)csc12)C1CCOC1 (stereo not drawn) [Example 14, 3-[2,6-Dimethoxy-4-methoxymethylphenyl]-6-methoxy-N-propyl-N-(tetrahydrofuran-3-yl)pyrazolo[5,1-b][1,3]thiazole-7-amine]",IC50,[4],51 nM
same,Effective Dose,[5],30 mg/kg
same,anxiolytic effect in the light/dark box test in mice,[5],excellent anxiolytic effects
"COCc1cc(OC)c(-c2csc3c(N(CC4CCOCC4)CC4CC4)c(C)nn23)c(OC)c1 [Example 4, N-(Cyclopropylmethyl)-3-[2,6-dimethoxy-4-(methoxymethyl)phenyl]-6-methyl-N-(tetrahydro-2H-pyran-4-ylmethyl)pyrazolo[5,1-b][1,3]thiazole-7-amine]",Effective Dose,[5],30 mg/kg
same,anxiolytic effect in the light/dark box test in mice,[5],excellent anxiolytic effects
CCCN(CC1CC1)c1nc(C)nc(Nc2c(Cl)cc(Cl)cc2Cl)c1Cl [NBI27914],limbic system seizure,[19],inhibits limbic system seizure
same,increased levels of Aβ and Aβ plaque deposition induced by stress,[20],inhibits increased levels of Aβ and Aβ plaque deposition induced by stress
"CCOCc1cc(OC)c(-c2csc3c(N(CCCOC)CC4CC4)c(OC)nn23)c(OC)c1 [Example 42, N-(Cyclopropylmethyl)-3-[4-(ethoxymethyl)-2,6-dimethoxyphenyl]-6-methoxy-N-(3-methoxypropyl)pyrazolo[5,1-b][1,3]thiazole-7-amine]",IC50,[4],35 nM
same,Effective Dose,[5],30 mg/kg
same,anxiolytic effect in the light/dark box test in mice,[5],excellent anxiolytic effects
"COCc1cc(OC)c(-c2csc3c(N(CC4CC4)CC4COCOC4)c(OC)nn23)c(OC)c1 [Example 11, Cyclopropylmethyl-3[3-(2,6-dimethoxy-4-methoxymethyl-phenyl)-6-methoxy-pyrazolo[5,1-b][1,3]thiazol-7-yl]-[1,3]dioxan-5-ylmethyl-amine]",IC50,[4],92 nM
same,Effective Dose,[5],30 mg/kg
same,anxiolytic effect in the light/dark box test in mice,[5],excellent anxiolytic effects
